Experimental data taken from ChEMBL document CHEMBL4680233, “A series of novel aryl-methanone derivatives as inhibitors of FMS-like tyrosine kinase 3 (FLT3) in FLT3-ITD-positive acute myeloid leukemia” (Eur J Med Chem, 2020).
One block for each molecule: values may come before it. Calls of active or inactive are those of the source. The rule behind the calls is not given here.

Key:
MV4-11 [1] = assay: cells; details: Homo sapiens, MV4-11, 72 h
Description: Cytotoxicity against human MV4-11 cells assessed as reduction in cell viability after 72 hrs by trypan blue dye exclusion method

[2] = target: Receptor-type tyrosine-protein kinase FLT3 (Homo sapiens) (UniProt P36888); details: MV4-11, dose 20-40 nM, time 3.0 hrs
[3] = target: Mitogen-activated protein kinase kinase kinase 20 (Homo sapiens, UniProt Q9NYL2); assay: Inhibition of human ZAK incubated for 30 mins by Kinobead based assay
Mitogen-activated protein kinase kinase kinase 20, sequence (Q9NYL2 whole entry): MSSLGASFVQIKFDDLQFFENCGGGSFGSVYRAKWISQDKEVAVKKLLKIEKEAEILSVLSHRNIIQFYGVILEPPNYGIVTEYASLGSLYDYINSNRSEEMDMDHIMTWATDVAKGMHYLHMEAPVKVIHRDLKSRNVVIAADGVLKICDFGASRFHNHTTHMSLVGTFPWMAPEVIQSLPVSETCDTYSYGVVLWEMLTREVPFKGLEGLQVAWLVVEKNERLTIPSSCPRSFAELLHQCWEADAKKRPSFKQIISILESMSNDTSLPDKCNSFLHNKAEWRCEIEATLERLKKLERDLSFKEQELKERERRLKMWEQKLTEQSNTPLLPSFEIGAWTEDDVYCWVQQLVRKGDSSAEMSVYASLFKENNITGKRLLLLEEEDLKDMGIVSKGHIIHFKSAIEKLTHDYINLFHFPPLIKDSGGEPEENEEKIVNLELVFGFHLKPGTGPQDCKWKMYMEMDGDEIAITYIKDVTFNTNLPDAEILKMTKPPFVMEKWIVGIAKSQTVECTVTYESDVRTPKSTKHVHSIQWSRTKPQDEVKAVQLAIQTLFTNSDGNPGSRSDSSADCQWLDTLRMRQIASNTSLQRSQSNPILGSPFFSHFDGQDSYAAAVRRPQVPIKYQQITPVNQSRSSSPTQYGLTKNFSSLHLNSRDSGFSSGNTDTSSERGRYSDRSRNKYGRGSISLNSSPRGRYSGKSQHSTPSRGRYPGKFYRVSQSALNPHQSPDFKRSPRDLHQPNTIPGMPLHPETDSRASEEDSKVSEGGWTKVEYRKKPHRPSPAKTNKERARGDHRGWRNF

Ephrin type-A receptor 7 = Ephrin type-A receptor 7 (Homo sapiens, UniProt Q15375); assay: Inhibition of human EPHA7 incubated for 30 mins by Kinobead based assay
Ephrin type-A receptor 7, sequence (Q15375 whole entry): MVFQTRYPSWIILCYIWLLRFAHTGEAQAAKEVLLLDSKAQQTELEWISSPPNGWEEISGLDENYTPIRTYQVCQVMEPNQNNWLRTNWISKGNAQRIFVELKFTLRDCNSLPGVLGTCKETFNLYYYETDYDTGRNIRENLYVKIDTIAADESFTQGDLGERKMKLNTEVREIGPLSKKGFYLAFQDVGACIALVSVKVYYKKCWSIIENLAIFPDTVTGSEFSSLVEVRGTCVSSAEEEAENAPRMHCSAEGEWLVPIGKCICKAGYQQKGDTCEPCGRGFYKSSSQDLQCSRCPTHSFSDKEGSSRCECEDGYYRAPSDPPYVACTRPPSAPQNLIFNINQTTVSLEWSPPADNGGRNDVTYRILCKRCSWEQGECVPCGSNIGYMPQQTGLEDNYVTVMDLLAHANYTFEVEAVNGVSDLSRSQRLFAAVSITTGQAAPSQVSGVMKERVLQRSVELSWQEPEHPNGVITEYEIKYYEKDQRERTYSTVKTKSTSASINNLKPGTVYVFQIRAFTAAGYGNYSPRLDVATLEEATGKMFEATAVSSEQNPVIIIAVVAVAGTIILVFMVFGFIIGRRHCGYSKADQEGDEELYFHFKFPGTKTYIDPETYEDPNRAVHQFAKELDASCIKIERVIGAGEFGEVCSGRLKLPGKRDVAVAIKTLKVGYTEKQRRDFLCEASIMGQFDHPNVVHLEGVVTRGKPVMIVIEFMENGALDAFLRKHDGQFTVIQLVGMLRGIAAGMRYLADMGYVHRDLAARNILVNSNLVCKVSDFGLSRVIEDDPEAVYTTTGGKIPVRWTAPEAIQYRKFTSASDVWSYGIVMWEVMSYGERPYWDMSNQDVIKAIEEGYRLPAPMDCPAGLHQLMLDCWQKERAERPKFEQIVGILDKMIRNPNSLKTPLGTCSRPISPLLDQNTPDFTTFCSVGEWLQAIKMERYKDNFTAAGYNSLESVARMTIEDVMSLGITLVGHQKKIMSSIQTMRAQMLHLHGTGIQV

[4] = target: Receptor-type tyrosine-protein kinase FLT3 (Homo sapiens, UniProt P36888, D835Y)
[5] = target: Receptor-type tyrosine-protein kinase FLT3 (Homo sapiens, UniProt P36888, ITD)
[6] = target: Discoidin domain-containing receptor 2 (Homo sapiens, UniProt Q16832); assay: Inhibition of human DDR2 incubated for 30 mins by Kinobead based assay
[7] = target: Receptor-type tyrosine-protein kinase FLT3 (Homo sapiens, UniProt P36888, F691L/ITD)
Description: Binding affinity to human partial length FLT3 ITD/F691L double mutant expressed in mammalian expression system by Kinomescan method

[8] = target: Receptor-type tyrosine-protein kinase FLT3 (Homo sapiens, UniProt P36888); assay: Inhibition of human FLT3 incubated for 30 mins by Kinobead based assay
[9] = target: Mitogen-activated protein kinase kinase kinase kinase 4 (Homo sapiens, UniProt O95819); assay: Inhibition of human MAP4K4 incubated for 30 mins by Kinobead based assay
Mitogen-activated protein kinase kinase kinase kinase 4, sequence (O95819 whole entry): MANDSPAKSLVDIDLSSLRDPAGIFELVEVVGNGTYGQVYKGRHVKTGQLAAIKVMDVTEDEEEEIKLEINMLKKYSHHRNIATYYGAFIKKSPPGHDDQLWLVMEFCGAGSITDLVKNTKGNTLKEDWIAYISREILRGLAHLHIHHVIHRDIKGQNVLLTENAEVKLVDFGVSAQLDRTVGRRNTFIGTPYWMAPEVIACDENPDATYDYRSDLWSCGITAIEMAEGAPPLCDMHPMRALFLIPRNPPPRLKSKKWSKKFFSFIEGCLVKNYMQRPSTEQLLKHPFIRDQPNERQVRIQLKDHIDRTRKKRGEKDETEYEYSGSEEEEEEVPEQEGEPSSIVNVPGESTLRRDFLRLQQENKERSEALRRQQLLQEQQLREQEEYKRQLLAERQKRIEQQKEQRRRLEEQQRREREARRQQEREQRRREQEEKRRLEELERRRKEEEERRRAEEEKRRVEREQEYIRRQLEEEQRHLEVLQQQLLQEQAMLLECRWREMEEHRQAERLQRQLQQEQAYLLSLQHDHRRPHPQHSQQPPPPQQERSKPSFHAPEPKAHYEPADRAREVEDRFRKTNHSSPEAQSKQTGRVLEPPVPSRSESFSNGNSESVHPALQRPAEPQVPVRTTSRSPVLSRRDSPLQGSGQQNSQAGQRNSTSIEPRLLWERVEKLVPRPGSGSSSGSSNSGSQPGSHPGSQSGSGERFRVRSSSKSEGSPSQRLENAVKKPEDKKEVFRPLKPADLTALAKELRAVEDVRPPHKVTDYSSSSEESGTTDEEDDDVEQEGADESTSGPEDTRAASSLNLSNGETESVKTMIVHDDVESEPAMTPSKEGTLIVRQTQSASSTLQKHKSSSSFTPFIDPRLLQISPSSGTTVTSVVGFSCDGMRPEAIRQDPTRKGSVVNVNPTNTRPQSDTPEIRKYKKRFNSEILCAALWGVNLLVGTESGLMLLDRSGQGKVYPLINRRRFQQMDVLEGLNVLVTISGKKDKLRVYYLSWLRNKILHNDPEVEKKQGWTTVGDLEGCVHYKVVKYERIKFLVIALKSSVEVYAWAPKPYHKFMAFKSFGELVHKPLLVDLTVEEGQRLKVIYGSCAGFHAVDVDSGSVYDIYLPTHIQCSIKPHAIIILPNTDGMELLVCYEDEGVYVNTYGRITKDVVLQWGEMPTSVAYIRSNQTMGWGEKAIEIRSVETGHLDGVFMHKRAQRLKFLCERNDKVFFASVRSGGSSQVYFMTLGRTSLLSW

[10] = target: Proto-oncogene tyrosine-protein kinase receptor Ret (Homo sapiens, UniProt P07949); assay: Inhibition of human RET incubated for 30 mins by Kinobead based assay
Proto-oncogene tyrosine-protein kinase receptor Ret, sequence (P07949 whole entry): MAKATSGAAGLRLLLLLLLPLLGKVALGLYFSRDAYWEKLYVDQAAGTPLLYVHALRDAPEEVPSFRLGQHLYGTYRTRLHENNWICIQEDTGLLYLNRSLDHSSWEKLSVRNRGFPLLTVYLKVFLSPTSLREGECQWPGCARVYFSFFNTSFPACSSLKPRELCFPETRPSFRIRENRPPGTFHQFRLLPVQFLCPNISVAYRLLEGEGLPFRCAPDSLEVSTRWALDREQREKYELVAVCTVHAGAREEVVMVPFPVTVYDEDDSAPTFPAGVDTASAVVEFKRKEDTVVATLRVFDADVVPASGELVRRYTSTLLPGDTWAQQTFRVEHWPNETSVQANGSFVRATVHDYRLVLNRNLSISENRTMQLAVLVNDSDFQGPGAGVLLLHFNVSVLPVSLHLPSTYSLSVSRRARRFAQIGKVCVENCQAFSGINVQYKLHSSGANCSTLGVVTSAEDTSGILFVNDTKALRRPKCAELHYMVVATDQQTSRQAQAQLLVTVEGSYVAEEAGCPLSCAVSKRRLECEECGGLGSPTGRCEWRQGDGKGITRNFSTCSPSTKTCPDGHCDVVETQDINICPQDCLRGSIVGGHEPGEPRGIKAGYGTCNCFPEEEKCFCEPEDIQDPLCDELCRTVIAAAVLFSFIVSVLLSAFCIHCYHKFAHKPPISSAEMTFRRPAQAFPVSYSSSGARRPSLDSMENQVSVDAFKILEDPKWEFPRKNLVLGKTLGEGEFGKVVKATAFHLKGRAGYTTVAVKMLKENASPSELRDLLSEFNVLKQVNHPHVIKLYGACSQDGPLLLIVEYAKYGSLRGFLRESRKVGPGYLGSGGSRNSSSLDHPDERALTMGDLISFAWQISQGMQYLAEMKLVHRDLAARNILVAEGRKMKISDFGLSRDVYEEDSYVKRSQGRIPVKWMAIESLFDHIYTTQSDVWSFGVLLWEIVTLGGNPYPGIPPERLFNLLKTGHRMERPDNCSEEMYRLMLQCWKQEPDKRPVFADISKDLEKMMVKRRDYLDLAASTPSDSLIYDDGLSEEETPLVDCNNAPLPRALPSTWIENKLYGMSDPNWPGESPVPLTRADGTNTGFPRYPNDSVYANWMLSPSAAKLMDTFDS

[11] = target: Cyclin-dependent kinase 16 (Homo sapiens, UniProt Q00536); assay: Inhibition of human CDK16 incubated for 30 mins by Kinobead based assay
Cyclin-dependent kinase 16, sequence (Q00536 whole entry): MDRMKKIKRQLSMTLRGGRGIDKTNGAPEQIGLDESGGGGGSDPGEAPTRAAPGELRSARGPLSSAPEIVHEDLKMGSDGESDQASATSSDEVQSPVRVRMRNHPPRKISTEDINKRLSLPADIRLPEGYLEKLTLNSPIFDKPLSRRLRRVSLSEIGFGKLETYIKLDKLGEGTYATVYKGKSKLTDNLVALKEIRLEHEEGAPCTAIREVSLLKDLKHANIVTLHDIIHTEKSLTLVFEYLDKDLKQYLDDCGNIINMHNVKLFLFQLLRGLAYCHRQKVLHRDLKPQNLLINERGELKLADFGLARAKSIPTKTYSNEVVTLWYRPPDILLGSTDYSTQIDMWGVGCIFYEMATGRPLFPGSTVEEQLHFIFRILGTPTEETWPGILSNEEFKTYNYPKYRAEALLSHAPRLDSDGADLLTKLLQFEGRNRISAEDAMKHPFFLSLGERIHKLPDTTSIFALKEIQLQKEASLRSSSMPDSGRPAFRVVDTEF

MOLM-13 = assay: cells; details: Homo sapiens, MOLM-13, 96 h
Description: Cytotoxicity against human MOLM-13 cells assessed as reduction in cell viability after 4 days by CellTiter-Blue assay

TF-1 = assay: cells; details: Homo sapiens, TF-1, 96 h
Description: Cytotoxicity against human TF-1 cells assessed as reduction in cell viability after 4 days by CellTiter-Blue assay

THP-1 = assay: cells; details: Homo sapiens, THP-1, 96 h
Description: Cytotoxicity against human THP-1 cells assessed as reduction in cell viability after 4 days by CellTiter-Blue assay

L-363 = assay: cells; details: Homo sapiens, L-363, 96 h
Description: Cytotoxicity against human L-363 cells assessed as reduction in cell viability after 4 days by CellTiter-Blue assay

U-266 = assay: cells; details: Homo sapiens, U-266, 96 h
Description: Cytotoxicity against human U-266 cells assessed as reduction in cell viability after 4 days by CellTiter-Blue assay

cells [12] = details: Homo sapiens, Mono-Mac-1, 96 h
Description: Cytotoxicity against human MONO-MAC-1 cells assessed as reduction in cell viability after 4 days by CellTiter-Blue assay

HL-60 = assay: cells; details: Homo sapiens, HL-60, 96 h
Description: Cytotoxicity against human HL-60 cells assessed as reduction in cell viability after 4 days by CellTiter-Blue assay

NB-4 = assay: cells; details: Homo sapiens, NB-4, 96 h
Description: Cytotoxicity against human NB-4 cells assessed as reduction in cell viability after 4 days by CellTiter-Blue assay

ML-2 = assay: cells; details: Homo sapiens, ML-2, 96 h
Description: Cytotoxicity against human ML-2 cells assessed as reduction in cell viability after 4 days by CellTiter-Blue assay

RPMI-8226 = assay: cells; details: Homo sapiens, RPMI-8226, 96 h
Description: Cytotoxicity against human RPMI-8226 cells assessed as reduction in cell viability after 4 days by CellTiter-Blue assay

physchem = details: water
Description: Solubility of compound in water at 10 mg after 3 hrs by UV-spectra analysis

OCI-AML2 = assay: cells; details: Homo sapiens, OCI-AML2, 96 h
Description: Cytotoxicity against human OCI-AML2 cells assessed as reduction in cell viability after 4 days by CellTiter-Blue assay

EOL1 = assay: cells; details: Homo sapiens, EOL1, 96 h
Description: Cytotoxicity against human EOL1 cells assessed as reduction in cell viability after 4 days by CellTiter-Blue assay

cells [13] = details: Homo sapiens, OCI-M1, 96 h
Description: Cytotoxicity against human OCI-M1 cells assessed as reduction in cell viability after 4 days by CellTiter-Blue assay

cells [14] = details: Homo sapiens, ME-1, 96 h
Description: Cytotoxicity against human ME-1 cells assessed as reduction in cell viability after 4 days by CellTiter-Blue assay

cells [15] = details: Homo sapiens, MOLP-2, 96 h
Description: Cytotoxicity against human MOLP-2 cells assessed as reduction in cell viability after 4 days by CellTiter-Blue assay

OPM-2 = assay: cells; details: Homo sapiens, OPM-2, 96 h
Description: Cytotoxicity against human OPM-2 cells assessed as reduction in cell viability after 4 days by CellTiter-Blue assay

KMOE-2 = assay: cells; details: Homo sapiens, KMOE-2, 96 h
Description: Cytotoxicity against human KMOE-2 cells assessed as reduction in cell viability after 4 days by CellTiter-Blue assay

IM-9 = assay: cells; details: Homo sapiens, IM-9, 96 h
Description: Cytotoxicity against human IM-9 cells assessed as reduction in cell viability after 4 days by CellTiter-Blue assay

[16] = Toxicity in NMRI nu/nu mouse assessed as weight gain at 75 mg/kg/day, po for 3 days relative to control; format: organism-based; details: in vivo, 72 h, time 3 day
cells [17] = details: Homo sapiens, PL-21, 96 h
Description: Cytotoxicity against human PL21 cells assessed as reduction in cell viability after 4 days by CellTiter-Blue assay

MONO-MAC-6 = assay: cells; details: Homo sapiens, MONO-MAC-6, 96 h
Description: Cytotoxicity against human MONO-MAC-6 cells assessed as reduction in cell viability after 4 days by CellTiter-Blue assay

OCI-AML-5 = assay: cells; details: Homo sapiens, OCI-AML-5, 96 h
Description: Cytotoxicity against human OCI-AML5 cells assessed as reduction in cell viability after 4 days by CellTiter-Blue assay

KG-1 = assay: cells; details: Homo sapiens, KG-1, 96 h
Description: Cytotoxicity against human KG-1 cells assessed as reduction in cell viability after 4 days by CellTiter-Blue assay

SKM-1 = assay: cells; details: Homo sapiens, SKM-1, 96 h
Description: Cytotoxicity against human SKM-1 cells assessed as reduction in cell viability after 4 days by CellTiter-Blue assay

[18] = Toxicity in NMRI nu/nu mouse assessed as lethality at 75 mg/kg/day, po for 3 days; format: organism-based; details: in vivo, 72 h, time 3 day
KG-1a = assay: cells; details: Homo sapiens, 96 h
Description: Cytotoxicity against human KG-1a cells assessed as reduction in cell viability after 4 days by CellTiter-Blue assay

NOMO-1 = assay: cells; details: Homo sapiens, NOMO-1, 96 h
Description: Cytotoxicity against human NOMO-1 cells assessed as reduction in cell viability after 4 days by CellTiter-Blue assay

MV4-11 [19] = assay: cells; details: Homo sapiens, MV4-11, 96 h
Description: Cytotoxicity against human MV4-11 cells assessed as reduction in cell viability after 4 days by CellTiter-Blue assay

- IC50 (MV4-11 [1]): 1.7 nM
SMILES: CC(C)(C)c1cc(NC(=O)Nc2ccc3[nH]c(C(=O)c4cc5cc(O)ccc5[nH]4)cc3c2)no1

- IC50 (MV4-11 [1]): 14.4 nM
SMILES: CC(C)(C)c1nnc(NC(=O)Nc2ccc3[nH]c(C(=O)c4cc5cc(O)ccc5[nH]4)cc3c2)s1

- IC50 (MV4-11 [1]): 29.8 nM
SMILES: CC(C)(C)c1cc(NC(=O)Nc2cc3cc(C(=O)c4cc5cc(O)ccc5o4)[nH]c3cn2)no1

- IC50 (MV4-11 [1]): > 100 nM
SMILES: Cc1cc(NC(=O)Nc2ccc3[nH]c(C(=O)c4cc5cc(O)ccc5[nH]4)cc3c2)no1

- IC50 (MV4-11 [1]): > 100 nM
SMILES: Cc1cccc2[nH]c(C(=O)c3cc4c(NC(=O)Nc5cc(C(C)(C)C)on5)cccc4[nH]3)cc12

- IC50 (MV4-11 [1]): > 100 nM
SMILES: CC(C)(C)c1cc(NC(=O)Nc2cnc3[nH]c(C(=O)c4cc5cc(O)ccc5[nH]4)cc3c2)no1

- IC50 (MV4-11 [1]): > 100 nM
SMILES: Cc1cccc2[nH]c(C(=O)c3cc4cccc(NC(=O)Nc5cc(C(C)(C)C)on5)c4[nH]3)cc12

- IC50 (MV4-11 [1]): 0.78 nM
SMILES: CC(C)(C)c1cc(NC(=O)Nc2ccc3[nH]c(C(=O)c4cc5cc(O)ccc5o4)cc3c2)no1

- IC50 (MV4-11 [1]): 13.5 nM
SMILES: Cc1cccc2[nH]c(C(=O)c3cc4cc(NC(=O)Nc5cc(C(C)(C)C)on5)ccc4[nH]3)cc12

- IC50 (MV4-11 [1]): 23.5 nM
SMILES: Cc1cccc2[nH]c(C(=O)c3cc4ccc(NC(=O)Nc5cc(C(C)(C)C)on5)cc4[nH]3)cc12

- inhibition [2]: Active
- EC50 [3]: 3260 nM
- EC50 (Ephrin type-A receptor 7): 3260 nM
- IC50 [4]: 4.84 nM
- IC50 [5]: 2.3 nM
- EC50 [6]: 2490 nM
- Kd [7]: 115 nM
- EC50 [8]: 1770 nM
- EC50 [9]: 3860 nM
- EC50 [10]: 2490 nM
- EC50 [11]: 1770 nM
SMILES: CC(C)(C)c1cc(NC(=O)Nc2ccc3oc(C(=O)c4cc5cc(O)ccc5[nH]4)cc3c2)no1

SMILES: CC(C)(C)c1cc(NC(=O)Nc2ccc3oc(C(=O)c4cc5cc(OC(=O)N6CCC(N7CCCCC7)CC6)ccc5[nH]4)cc3c2)no1.Cl
- IC50 (MOLM-13): 0.002 nM
- IC50 (TF-1): 5.31 nM
- IC50 (THP-1): 2.12 nM
- IC50 (L-363): 1.61 nM
- IC50 (U-266): 1.37 nM
- IC50 (cells [12]): 0.001 nM
- IC50 (HL-60): 2.35 nM
- IC50 (NB-4): 3.6 nM
- IC50 (ML-2): 1.49 nM
- IC50 (RPMI-8226): 2.37 nM
- solubility at 3 h (physchem): 230 µg/mL
- IC50 (OCI-AML2): 1.39 nM
- IC50 (EOL1): 0.0001 nM
- IC50 (cells [13]): 0.695 nM
- IC50 (cells [14]): 2.36 nM
- IC50 (cells [15]): 2.27 nM
- IC50 (OPM-2): 1.33 nM
- IC50 (KMOE-2): 5.33 nM
- IC50 (IM-9): 2.25 nM
- Activity [16]: 3%
- IC50 (cells [17]): 1.3 nM
- IC50 (MONO-MAC-6): 0.011 nM
- IC50 (OCI-AML-5): 0.159 nM
- IC50 (KG-1): 0.556 nM
- IC50 (SKM-1): 1.35 nM
- Activity [18]: Non-Toxic
- IC50 (KG-1a): 0.613 nM
- IC50 (NOMO-1): 1.21 nM
- IC50 (MV4-11 [19]): 0.0009 nM
